According to patent US20090306218A1, “Antimicrobial formulations” (priority 2006, published 2009):
≈ marks a conversion by molar mass, not a printed value. Where two headings read alike, the source gives them in different places.

What was measured:
[1] = system: P. acnes PRP panel strains; assay: MBC assay, panel of propionibacteria
Experimental: (§8) This assay, normally carried out after an MIC assay, determines the minimum concentration of a compound that is lethal to the micro-organism being tested.
(§9) These samples were then individually sub-cultured on antibiotic-free agar medium, under the incubation conditions described above. Following incubation they were examined visually for microbial growth.

[2] = system: Por. gingivalis NCTC 11834; assay: MBC assay; type: cell-based, Porphyromonas gingivalis
Experimental: (§1) (b) Minimum Bactericidal Concentration (MBC) Assay
(§2) MIC and MBC assays, as described above, were carried out using the test compounds t-butyl-p-hydroquinone (TBHQ) and bismuth subsalicylate (both ex-Sigma Aldrich). The TBHQ was dissolved in ethanol and the bismuth subsalicylate in DMSO. All the experiments were conducted in triplicate.

[3] = system: Propionibacterium acnes NCTC 737; assay: Minimum bactericidal concentration (MBC) assay; type: cell-based; conditions: P. acnes NCTC 737
Experimental: as §1
(§3) MIC, MBC and DDA assays, as described above, were carried out using the test compound t-butyl-p-hydroquinone (TBHQ) and a range of bismuth salts (all ex-Sigma Aldrich, UK).

[4] = system: P. granulosum panel strains; assay: MIC assay, liquid medium, panel of propionibacteria; type: cell-based, Propionibacterium granulosum
[5] = system: P. acnes PRP panel strains; type: cell-based, Propionibacterium acnes; conditions: for MIC: liquid medium
[6] = system: P. granulosum panel strains; assay: Disc diffusion assay (DDA), panel of propionibacteria; type: cell-based, Propionibacterium granulosum; conditions: 200 μg per disc
[7] = system: P. granulosum panel strains; assay: MBC assay, panel of propionibacteria
Experimental: as §8, §9

[8] = system: Propionibacterium acnes NCTC 737; assay: Disc diffusion assay (DDA); type: cell-based; conditions: P. acnes NCTC 737, 200 μg per disc
Experimental: (d) Disc Diffusion Assay (DDA)
This is an internationally recognised standard method for qualitatively assessing the antimicrobial activity of a compound.
A sterile paper disc was impregnated with a sample of the test compound in a suitable solvent and 30 minutes allowed for the solvents to evaporate (where possible). The disc was then placed on an agar plate onto which the test micro-organism had been inoculated. The plate was then incubated under the conditions described above, following which it was examined visually for signs of microbial growth. […] The diameter of this zone of “inhibition” was measured using a ProtoCOL™ automated zone sizer (Synbiosis, Cambridge, UK).
The TBHQ was dissolved in ethanol and the bismuth salts in DMSO.
All the (S)DDA experiments were conducted in triplicate.
DDA assays, as described above, were carried out using each of the test compounds individually. The quinone/bismuth salt combinations were then subjected to the SDDA assay described above.
The quinones and bismuth salts were all dissolved in DMSO.

[9] = system: Por. gingivalis NCTC 11834; assay: MIC assay, liquid medium; type: cell-based, Porphyromonas gingivalis
Experimental: (§4) (a) Minimum Inhibitory Concentration (MIC) Assay
(§5) This is a standard international method for quantitatively assessing the antimicrobial activity of a compound in a liquid medium. The method used a sterile 96-well microtitre plate, capable of holding about 200 μl of liquid per well. […] The culture medium was as described above.
(§6) After incubation, the microtitre plate was examined visually (with the aid of a light box) for cloudiness in each well, which would indicate microbial growth. The MIC value was recorded as the lowest concentration of test compound required to inhibit microbial growth, i.e., the lowest concentration for which the liquid in the well remained clear.
(§7) The assays were conducted in duplicate (minimum) and included both negative (culture medium with no micro-organisms) and positive (culture medium plus diluting solvent plus micro-organism) controls.
as §2

[10] = system: Propionibacterium acnes NCTC 737; assay: Minimum inhibitory concentration (MIC) assay, liquid medium; type: cell-based; conditions: for MIC: P. acnes NCTC 737
Experimental: as §4, §5, §6, §7, §3

[11] = system: P. acnes PRP panel strains; type: cell-based, Propionibacterium acnes; conditions: 200 μg per disc
[12] = P. acnes PRP-002, resistance phenotype Tet/MLS
[13] = P. acnes PRP-003, resistance phenotype Tet
[14] = P. acnes PRP-004, resistance phenotype Tet
[15] = P. acnes PRP-007, resistance phenotype Clin
[16] = P. acnes PRP-008, resistance phenotype Clin
[17] = P. acnes PRP-010, resistance phenotype MLSK
[18] = P. acnes PRP-017, resistance phenotype MLS
[19] = P. acnes PRP-023, resistance phenotype MLSK
[20] = P. acnes PRP-026, resistance phenotype MLS
[21] = P. acnes PRP-039, resistance phenotype Tet/MLS
[22] = P. acnes PRP-046, resistance phenotype None
[23] = P. acnes PRP-053, resistance phenotype Tet/MLS
[24] = P. acnes PRP-059, resistance phenotype MLS
[25] = P. acnes PRP-068, resistance phenotype Ery
[26] = P. acnes PRP-101, resistance phenotype Tet/MLS
[27] = P. acnes PRP-102, resistance phenotype Tet/MLS
[28] = P. granulosum NCTC 11865, resistance phenotype None
[29] = P. granulosum PRP-005, resistance phenotype MLSK
[30] = P. granulosum PRP-006, resistance phenotype MLS
[31] = P. granulosum PRP-019, resistance phenotype MLSK
[32] = P. granulosum PRP-021, resistance phenotype MLS
[33] = P. granulosum PRP-043, resistance phenotype MLS
[34] = P. granulosum PRP-044, resistance phenotype MLS
[35] = P. granulosum PRP-055, resistance phenotype None

## CC(C)(C)c1cc(O)ccc1O [TBHQ, t-butyl-p-hydroquinone]
[1]; [12]
  MBC: 7.8 µg/mL (≈ 46.9 µM)
[1]; [13]
  MBC: 7.8 µg/mL (≈ 46.9 µM)
[1]; [14]
  MBC: 7.8 µg/mL (≈ 46.9 µM)
[1]; [15]
  MBC: 7.8 µg/mL (≈ 46.9 µM)
[1]; [16]
  MBC: 7.8 µg/mL (≈ 46.9 µM)
[1]; [17]
  MBC: 15.6 µg/mL (≈ 93.9 µM)
[1]; [18]
  MBC: 7.8 µg/mL (≈ 46.9 µM)
[1]; [19]
  MBC: 7.8 µg/mL (≈ 46.9 µM)
[1]; [20]
  MBC: 7.8 µg/mL (≈ 46.9 µM)
[1]; [21]
  MBC: 7.8 µg/mL (≈ 46.9 µM)
[1]; [22]
  MBC: 7.8 µg/mL (≈ 46.9 µM)
[1]; [23]
  MBC: 7.8 µg/mL (≈ 46.9 µM)
[1]; [24]
  MBC: 7.8 µg/mL (≈ 46.9 µM)
[1]; [25]
  MBC: 7.8 µg/mL (≈ 46.9 µM)
[1]; [26]
  MBC: 7.8 µg/mL (≈ 46.9 µM)
[1]; [27]
  MBC: 15.6 µg/mL (≈ 93.9 µM)
[2]
  MBC: 0.49 µg/mL (≈ 2.95 µM)
  MIC/MBC ratio: <1
[3]; Table 1
  MBC: 7.8 µg/mL (≈ 46.9 µM)
  MIC/MBC ratio: 1
[3]; separate experiment, Table 3
  MBC: 7.8 µg/mL (≈ 46.9 µM)
  MIC/MBC ratio: 1
[4]; [28]
  MIC: 3.9 µg/mL (≈ 23.5 µM)
[4]; [29]
  MIC: 62.5 µg/mL (≈ 376 µM)
[4]; [30]
  MIC: 7.8 µg/mL (≈ 46.9 µM)
[4]; [31]
  MIC: 31.25 µg/mL (≈ 188 µM)
[4]; [32]
  MIC: 15.6 µg/mL (≈ 93.9 µM)
[4]; [33]
  MIC: 15.6 µg/mL (≈ 93.9 µM)
[4]; [34]
  MIC: 15.6 µg/mL (≈ 93.9 µM)
[4]; [35]
  MIC: 3.9 µg/mL (≈ 23.5 µM)
[5]; [12]
  MIC: 3.9 µg/mL (≈ 23.5 µM)
[5]; [13]
  MIC: 7.8 µg/mL (≈ 46.9 µM)
[5]; [14]
  MIC: 1.95 µg/mL (≈ 11.7 µM)
[5]; [15]
  MIC: 3.9 µg/mL (≈ 23.5 µM)
[5]; [16]
  MIC: 3.9 µg/mL (≈ 23.5 µM)
[5]; [17]
  MIC: 3.9 µg/mL (≈ 23.5 µM)
[5]; [18]
  MIC: 3.9 µg/mL (≈ 23.5 µM)
[5]; [19]
  MIC: 3.9 µg/mL (≈ 23.5 µM)
[5]; [20]
  MIC: 3.9 µg/mL (≈ 23.5 µM)
[5]; [21]
  MIC: 3.9 µg/mL (≈ 23.5 µM)
[5]; [22]
  MIC: 1.95 µg/mL (≈ 11.7 µM)
[5]; [23]
  MIC: 3.9 µg/mL (≈ 23.5 µM)
[5]; [24]
  MIC: 3.9 µg/mL (≈ 23.5 µM)
[5]; [25]
  MIC: 3.9 µg/mL (≈ 23.5 µM)
[5]; [26]
  MIC: 3.9 µg/mL (≈ 23.5 µM)
[5]; [27]
  MIC: 7.8 µg/mL (≈ 46.9 µM)
[5]; P. acnes and P. granulosum strains of Tables 6 and 7
  activity against the panel of propionibacteria (in words): active against all of the propionibacterial strains tested
[6]; P. granulosum NCTC 11865
  DDA (zone diameter): 11.50 mm
[6]; P. granulosum PRP-005
  DDA (zone diameter): 10.67 mm
[6]; P. granulosum PRP-006
  DDA (zone diameter): 9.42 mm
[6]; P. granulosum PRP-019
  DDA (zone diameter): 10.36 mm
[6]; P. granulosum PRP-021
  DDA (zone diameter): 0.00 mm
[6]; P. granulosum PRP-043
  DDA (zone diameter): 0.00 mm
[6]; P. granulosum PRP-044
  DDA (zone diameter): 0.00 mm
[6]; P. granulosum PRP-055
  DDA (zone diameter): 18.02 mm
[7]; [28]
  MBC: 7.8 µg/mL (≈ 46.9 µM)
[7]; [29]
  MBC: 62.5 µg/mL (≈ 376 µM)
[7]; [30]
  MBC: 7.8 µg/mL (≈ 46.9 µM)
[7]; [31]
  MBC: 31.25 µg/mL (≈ 188 µM)
[7]; [32]
  MBC: 31.25 µg/mL (≈ 188 µM)
[7]; [33]
  MBC: 15.6 µg/mL (≈ 93.9 µM)
[7]; [34]
  MBC: 31.25 µg/mL (≈ 188 µM)
[7]; [35]
  MBC: 7.8 µg/mL (≈ 46.9 µM)
[8]; Table 2
  DDA (zone of inhibition diameter): 11.04 mm
[8]; separate experiment, Table 4
  DDA (zone of inhibition diameter): 14.68 mm
[9]; Por. gingivalis NCTC 11834
  MIC: <0.49 µg/mL
[9]; compound alone, data of Table 8
  activity against Por. gingivalis NCTC 11834 (in words): active
[10]; Table 1
  MIC: 7.8 µg/mL (≈ 46.9 µM)
[10]; separate experiment, Table 3
  MIC: 7.8 µg/mL (≈ 46.9 µM)
[10]; compound alone, data of Tables 1 and 2
  activity against P. acnes NCTC 737 (in words): active
[11]; P. acnes PRP-002
  DDA (zone diameter): 18.12 mm
[11]; P. acnes PRP-003
  DDA (zone diameter): 18.12 mm
[11]; P. acnes PRP-004
  DDA (zone diameter): 19.88 mm
[11]; P. acnes PRP-007
  DDA (zone diameter): 12.74 mm
[11]; P. acnes PRP-008
  DDA (zone diameter): 17.92 mm
[11]; P. acnes PRP-010
  DDA (zone diameter): 18.54 mm
[11]; P. acnes PRP-017
  DDA (zone diameter): 13.98 mm
[11]; P. acnes PRP-023
  DDA (zone diameter): 18.54 mm
[11]; P. acnes PRP-026
  DDA (zone diameter): 13.98 mm
[11]; P. acnes PRP-039
  DDA (zone diameter): 17.71 mm
[11]; P. acnes PRP-046
  DDA (zone diameter): 20.71 mm
[11]; P. acnes PRP-053
  DDA (zone diameter): 17.09 mm
[11]; P. acnes PRP-059
  DDA (zone diameter): 19.88 mm
[11]; P. acnes PRP-068
  DDA (zone diameter): 16.78 mm
[11]; P. acnes PRP-101
  DDA (zone diameter): 12.84 mm
[11]; P. acnes PRP-102
  DDA (zone diameter): 14.50 mm
